Data from US9562033B2, “Inhibitors of viral replication, their process of preparation and their therapeutical uses” (LABORATOIRE BIODIM, priority 2012, dated 2017).

Test system: NL4-3 strain of HIV-1
Test: HIV-1 replication inhibition: cyto-protection of MT4 cells infected with NL4-3 virus (CellTiter-Glo viability assay)
Assay type: cell-based
Details: Human immunodeficiency virus 1, NL43, 120 h, concentration leading to 50% of cyto-protection, 5 days incubation
Protocol: The antiviral activity, particularly against HIV, of compounds according to the invention is evaluated by the protocol described below.
Preparation of Virus Stock of the NL4-3 Strain of HIV-1
The virus was prepared as described in Lopez et al (Lopez et al, Proc Natl Acad Sci USA., 2006, 103(40):14947-52, by transfecting 2×10^6 293 T cells (CRL-1573, ATCC) with following modifications: 6 μg of NL4-3 proviral DNA molecular clone were mixed with Fugene 6 transfection reagent from Roche, and used according to manufacturer's instructions. Forty eight hours later, transfected cell supernatants were harvested, filtered through 0.45-μm-pore-size filters, quantified for HIV-1 p24 antigen by using a Innotest HIV antigen mAb assay (Ingen) according to manufacturer's instructions, and used in infection experiments.
Preparation of Compounds:
Serial dilutions of compounds to be tested were prepared in complete RPMI medium from 10 mM DMSO stock solutions, and distributed in a volume of 20 µl in 96 well Falcon 353072 Microtest™ tissue culture plate, in order to get 0.5% DMSO final concentration in each well, after the addition of infected cells. Control wells contained also 0.5% DMSO final concentration but no compound.
MT4 cells (from the NIH AIDS Research and Reference Reagent Program) in RPMI complete medium were counted (10×10^6 cells per well in Falcon 353047 Multiwell™ 24 well) and infected for 2 hours at 37°, at a multiplicity of infection (moi) of 0.0001-0.00001. Cells were then centrifuged 3 min at 3000 rpm, and washed two times in 1 ml PBS to remove viruses that have not entered in cells. Infected cells were resuspended in complete RPMI at 1.25×10^6 cells/ml, and 80 µl of infected cells were distributed in each well containing compounds to be tested or control wells. The plates were then incubated at 37° for 5 days.
Assay Used to Measure the Inhibition of HIV Replication by the Compounds
(according to Gregg S. Jones et al., Antimicrobial Agents and Chemotherapy, 2009, 53 (3): 1194-1203).
After 5 days of incubation, […] of CellTiter-Glo reagent (Promega Biosciences, Inc., Madison Wis., USA) were added to each well. Cell lysis was carried out at room temperature during 10 min, 150 μl of lysates were transferred in Packard Optiplate 96 well, and luminescence was read on a Fluoroskan (Thermo Scientific).

SMILES | EC50
Cc1sc(-c2ccccc2)c(-c2ccc3c(c2)CCCO3)c1C(OC(C)(C)C)C(=O)O (stereo not shown) [Example 1, 2-(tert-butoxy)-2-[4-(3,4-dihydro-2H-1-benzopyran-6-yl)-2-methyl-5-phenylthiophen-3-yl]acetic acid] | 260 nM
Cc1sc(-c2ccc(F)cc2)c(-c2ccc3c(c2)CCCO3)c1C(OC(C)(C)C)C(=O)O (stereo not shown) [Example 2, 2-(tert-butoxy)-2-[4-(3,4-dihydro-2H-1-benzopyran-6-yl)-5-(4-fluorophenyl)-2-methylthiophen-3-yl]acetic acid] | 190 nM
Cc1sc(-c2ccncc2)c(-c2ccc3c(c2)CCCO3)c1C(OC(C)(C)C)C(=O)O (stereo not shown) [Example 3, 2-(tert-butoxy)-2-[4-(3,4-dihydro-2H-1-benzopyran-6-yl)-2-methyl-5-(pyridin-4-yl)thiophen-3-yl]acetic acid] | 100 nM
Cc1sc(-c2cnc3c(c2)CCCO3)c(-c2ccc3c(c2)CCCO3)c1C(OC(C)(C)C)C(=O)O (stereo not shown) [Example 4, (tert-butoxy)[4-(3,4-dihydro-2H-1-benzopyran-6-yl)-2-methyl-5-{2H,3H,4H-pyrano[2,3-b]pyridin-6-yl}thiophen-3-yl]acetic acid] | 180 nM
Cc1sc(-c2ccncc2)c(C2=CCC(C)(C)CC2)c1C(OC(C)(C)C)C(=O)O (stereo not shown) [Example 5, 2-(tert-butoxy)-2-[4-(4,4-dimethylcyclohex-1-en-1-yl)-2-methyl-5-(pyridin-4-yl)thiophen-3-yl]acetic acid] | 41 nM
Cc1sc(-c2ccncc2)c(C2=CCC(C(C)C)CC2)c1C(OC(C)(C)C)C(=O)O (stereo not shown) [Example 6, 2-(tert-butoxy)-2-{2-methyl-4-[4-(propan-2-yl)cyclohex-1-en-1-yl]-5-(pyridin-4-yl)thiophen-3-yl}acetic acid] | 160 nM
Cc1sc(-c2cnc3c(c2)CCCO3)c(C2=CCC(C)(C)CC2)c1C(OC(C)(C)C)C(=O)O (stereo not shown) [Example 7] | 81 nM
Cc1sc(-c2cccnc2)c(-c2ccc3c(c2)CCCO3)c1C(OC(C)(C)C)C(=O)O (stereo not shown) [Example 8, 2-(tert-butoxy)-2-[4-(3,4-dihydro-2H-1-benzopyran-6-yl)-2-methyl-5-(pyridin-3-yl)thiophen-3-yl)acetic acid] | 270 nM
Cc1sc(-c2ccncc2)c(C2=CCC(C)CC2)c1C(OC(C)(C)C)C(=O)O (stereo not shown) [Example 10, 2-(tert-butoxy)-2-[2-methyl-4-(4-methylcyclohex-1-en-1-yl)-5-(pyridin-4-yl)thiophen-3-yl]acetic acid] | 140 nM
Cc1sc(-c2ccncc2)c(C2=CCC(C)(C)CC2)c1[C@H](OC(C)(C)C)C(=O)O [Example 11, (2S)-2-(tert-butoxy)-2-[4-(4,4-dimethylcyclohex-1-en-1-yl)-2-methyl-5-(pyridin-4-yl)thiophen-3-yl]acetic acid] | 32 nM
Cc1sc(-c2ccncc2)c(C2=CCC3(CC2)CC3)c1C(OC(C)(C)C)C(=O)O (stereo not shown) [Example 12, 2-(tert-butoxy)-2-[2-methyl-5-(pyridin-4-yl)-4-{spiro[2,5]oct-5-en-6-yl}thiophen-3-yl]acetic acid] | 130 nM
Cc1sc(-c2ccnc(F)c2)c(-c2ccc3c(c2)CCCO3)c1C(OC(C)(C)C)C(=O)O (stereo not shown) [Example 13, 2-(tert-butoxy)-2-[4-(3,4-dihydro-2H-1-benzopyran-6-yl)-5-(2-fluoropyridin-4-yl)-2-methylthiophen-3-yl) acetic acid] | 150 nM
Cc1cc(-c2sc(C)c(C(OC(C)(C)C)C(=O)O)c2-c2ccc3c(c2)CCCO3)ccn1 (stereo not shown) [Example 14, 2-(tert-butoxy)-2-[4-(3,4-dihydro-2H-1-benzopyran-6-yl)-2-methyl-5-(2-methylpyridin-4-yl)thiophen-3-yl]acetic acid] | 480 nM
Cc1sc(-c2ccnc3ccccc23)c(-c2ccc3c(c2)CCCO3)c1C(OC(C)(C)C)C(=O)O (stereo not shown) [Example 15, 2-(tert-butoxy)-2-[4-(3,4-dihydro-2H-1-benzopyran-6-yl)-2-methyl-5-(quinolin-4-yl)thiophen-3-yl]acetic acid] | 410 nM
Cc1sc(-c2ccoc2)c(-c2ccc3c(c2)CCCO3)c1C(OC(C)(C)C)C(=O)O (stereo not shown) [Example 16, 2-(tert-butoxy)-2-[4-(3,4-dihydro-2H-1-benzopyran-6-yl)-5-(furan-3-yl)-2-methylthiophen-3-yl]acetic acid] | 820 nM
Cc1sc(-c2ccnc(OCc3ccccc3)c2)c(-c2ccc3c(c2)CCCO3)c1C(OC(C)(C)C)C(=O)O (stereo not shown) [Example 17, 2-{5-[2-(benzyloxy)pyridin-4-yl]-4-(3,4-dihydro-2H-1-benzopyran-6-yl)-2-methylthiophen-3-yl}-2-(tert-butoxy)acetic acid] | 650 nM
Cc1sc(-c2cncnc2)c(-c2ccc3c(c2)CCCO3)c1C(OC(C)(C)C)C(=O)O (stereo not shown) [Example 18, 2-(tert-butoxy)-2-[4-(3,4-dihydro-2H-1-benzopyran-6-yl)-2-methyl-5-(pyrimidin-5-yl)thiophen-3-yl]acetic acid] | 260 nM
Cc1sc(-c2ccc(=O)n(C)c2)c(-c2ccc3c(c2)CCCO3)c1C(OC(C)(C)C)C(=O)O (stereo not shown) [Example 19, 2-(tert-butoxy)-2-[4-(3,4-dihydro-2H-1-benzopyran-6-yl)-2-methyl-5-(1-methyl-6-oxo-1,6-dihydropyridin-3-yl)thiophen-3-yl]acetic acid] | 430 nM
Cc1sc(-c2ccsc2)c(-c2ccc3c(c2)CCCO3)c1C(OC(C)(C)C)C(=O)O (stereo not shown) [Example 20, 2-(tert-butoxy)-2-[4-(3,4-dihydro-2H-1-benzopyran-6-yl)-2-methyl-5-(thiophen-3-yl)thiophen-3-yl]acetic acid] | 220 nM
CC(=O)NCc1ccc(-c2sc(C)c(C(OC(C)(C)C)C(=O)O)c2-c2ccc3c(c2)CCCO3)cc1 (stereo not shown) [Example 21, 2-(tert-butoxy)-2-[4-(3,4-dihydro-2H-1-benzopyran-6-yl)-5-[4-(acetamidomethyl)phenyl]-2-methylthiophen-3-yl]acetic acid] | 580 nM
Cc1sc(-c2ccc(C(N)=O)cc2)c(-c2ccc3c(c2)CCCO3)c1C(OC(C)(C)C)C(=O)O (stereo not shown) [Example 22, 2-(tert-butoxy)-2-[5-(4-carbamoylphenyl)-4-(3,4-dihydro-2H-1-benzopyran-6-yl)-2-methylthiophen-3-yl]acetic acid] | 300 nM
Cc1sc(-c2cccs2)c(-c2ccc3c(c2)CCCO3)c1C(OC(C)(C)C)C(=O)O (stereo not shown) [Example 23, 2-(tert-butoxy)-2-[4-(3,4-dihydro-2H-1-benzopyran-6-yl)-2-methyl-5-(thiophen-2-yl)thiophen-3-yl]acetic acid] | 170 nM
Cc1sc(-c2cnn(C)c2)c(C2=CCC(C)(C)CC2)c1C(OC(C)(C)C)C(=O)O (stereo not shown) [Example 24, 2-(tert-butoxy)-2-[4-(4,4-dimethylcyclohex-1-en-1-yl)-2-methyl-5-(N-methylpyrazol-4-yl)thiophen-3-yl]acetic acid] | 310 nM
Cc1sc(-c2cncnc2)c(C2=CCC(C)(C)CC2)c1C(OC(C)(C)C)C(=O)O (stereo not shown) [Example 25, 2-(tert-butoxy)-2-[4-(4,4-dimethylcyclohex-1-en-1-yl)-2-methyl-5-(pyrimidin-5-yl)thiophen-3-yl]acetic acid] | 190 nM
Cc1sc(-c2cnn(C)c2)c(C2=CCC(C(C)C)CC2)c1C(OC(C)(C)C)C(=O)O (stereo not shown) [Example 26, 2-(tert-butoxy)-2-{2-methyl-4-[4-(propan-2-yl)cyclohex-1-en-1-yl]-5-(N-methylpyrazol-4-yl)thiophen-3-yl}acetic acid] | 830 nM
